Experiment [1] has as its target T1, FAAH (Mus musculus, UniProt O08914).
T1 construct: Proteomes (mouse brain membrane fraction or cell lysates); from tissue; host or cells: mouse brain membrane fraction (or unspecified cell lysates)
T1 sequence (O08914 1-579): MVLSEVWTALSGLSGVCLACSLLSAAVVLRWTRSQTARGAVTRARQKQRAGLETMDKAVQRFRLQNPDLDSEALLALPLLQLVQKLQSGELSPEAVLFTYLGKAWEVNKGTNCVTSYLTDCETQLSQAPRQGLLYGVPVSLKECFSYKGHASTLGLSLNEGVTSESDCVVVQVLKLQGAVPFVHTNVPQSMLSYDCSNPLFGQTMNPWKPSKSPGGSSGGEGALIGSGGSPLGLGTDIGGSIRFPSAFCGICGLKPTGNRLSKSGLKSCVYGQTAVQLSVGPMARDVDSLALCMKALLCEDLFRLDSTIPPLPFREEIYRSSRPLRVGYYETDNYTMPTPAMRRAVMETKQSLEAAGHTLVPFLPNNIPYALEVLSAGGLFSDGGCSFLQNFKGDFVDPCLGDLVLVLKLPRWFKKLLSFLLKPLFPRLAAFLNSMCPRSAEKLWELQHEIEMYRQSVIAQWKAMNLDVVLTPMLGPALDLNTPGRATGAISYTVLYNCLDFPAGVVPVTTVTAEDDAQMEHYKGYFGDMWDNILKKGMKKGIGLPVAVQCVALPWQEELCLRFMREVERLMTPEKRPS
Description: Mouse brain proteomes from inhibitor treated mice, FAAH. In kind it is in vivo. To be noted: 5 mg/kg oral gavage, C57Bl/6J mice, brain proteome 4 h after administration. How it is done: (§1) Preparation of Mouse Brain Proteomes from Inhibitor Treated Mice.
Inhibitors were administered to wild-type C57Bl/6J by oral gavage in a vehicle of polyethylene glycol. Each animal was sacrificed 4 h following administration and brain proteomes were prepared and analyzed according to previously established methods (See Niphakis, M. J., et al. (2011) ACS Chem. Neurosci. and Long, J. Z., et al. Nat. Chem. Biol. 5:37-44)

In experiment [2] the target is T1, FAAH. The experiment is described as follows: In vitro competitive activity-based protein profiling (mouse), FAAH. Conditions: for inhibition at 1 µM: mouse proteome, in vitro; for IC50: mouse brain membrane fraction or cell lysates, 30 min preincubation at 37° C, FP-Rh probe. In kind it is biochemical. Summed up:
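Competitive ABPP: inhibitor exposure (30 min, 37° C) of mouse brain membrane or lysate proteome at 1.0 mg/mL, then labelling with FP-Rh for another 30 min. Activity quantified by in-gel fluorescence of FAAH bands after SDS-PAGE.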

For experiment [3], the target named is T2, MAGL (Mus musculus, UniProt O35678).
T2 construct: Proteomes (mouse brain membrane fraction or cell lysates); from tissue; host or cells: mouse brain membrane fraction (or unspecified cell lysates)
T2 sequence (O35678 1-303): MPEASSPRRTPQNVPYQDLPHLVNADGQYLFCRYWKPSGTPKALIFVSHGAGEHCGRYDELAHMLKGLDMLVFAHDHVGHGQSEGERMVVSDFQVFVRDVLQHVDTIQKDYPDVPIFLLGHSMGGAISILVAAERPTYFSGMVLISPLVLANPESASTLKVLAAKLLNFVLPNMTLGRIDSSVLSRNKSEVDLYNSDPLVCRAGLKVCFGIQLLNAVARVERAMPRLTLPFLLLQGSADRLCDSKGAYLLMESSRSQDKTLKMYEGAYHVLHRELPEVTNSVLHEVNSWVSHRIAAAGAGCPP
The experiment is described as follows: Mouse brain proteomes from inhibitor treated mice, MAGL. In kind it is in vivo. To be noted: 5 mg/kg oral gavage, C57Bl/6J mice, brain proteome 4 h after administration. On the procedure: as §1
(§2) Inhibitors were administered to wild-type C57Bl/6J by oral gavage in a vehicle of polyethylene glycol.

In experiment [4] the target is T2, MAGL. Description: In vitro competitive activity-based protein profiling (mouse), MAGL. It is filed as biochemical. Conditions: for inhibition at 1 µM: mouse proteome, in vitro, read-out: % Inhibition at 1 μM MAGL; for IC50: mouse brain membrane fraction or cell lysates, 30 min preincubation at 37° C, FP-Rh probe. On the procedure:
(§3) In Vitro Competitive Activity-Based Protein Profiling (Mouse).
(§4) Proteomes (mouse brain membrane fraction or cell lysates) (50 μL, 1.0 mg/mL total protein concentration) were preincubated with varying concentrations of inhibitors at 37° C. After 30 min, FP-Rh (1.0 μL, 50 μM in DMSO) was added and the mixture was incubated for another 30 min at 37° C. Reactions were quenched with SDS loading buffer (50 μL-4×) and run on SDS-PAGE.

Experiment [5] has as its target T3, ABHD6 (Mus musculus, UniProt Q8R2Y0).
T3 construct: Proteomes (mouse brain membrane fraction or cell lysates); from tissue; host or cells: mouse brain membrane fraction (or unspecified cell lysates)
T3 sequence (Q8R2Y0 1-336): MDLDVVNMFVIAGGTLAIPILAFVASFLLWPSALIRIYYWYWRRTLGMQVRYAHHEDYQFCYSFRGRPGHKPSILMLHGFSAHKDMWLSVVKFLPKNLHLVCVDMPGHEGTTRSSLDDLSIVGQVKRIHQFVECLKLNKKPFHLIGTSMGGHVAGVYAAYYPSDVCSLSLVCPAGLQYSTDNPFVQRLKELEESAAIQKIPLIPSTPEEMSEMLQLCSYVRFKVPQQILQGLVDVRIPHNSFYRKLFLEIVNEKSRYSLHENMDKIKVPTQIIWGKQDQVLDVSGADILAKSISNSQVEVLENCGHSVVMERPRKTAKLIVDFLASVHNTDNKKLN
Description: In vitro competitive activity-based protein profiling (mouse), ABHD6. Conditions: for inhibition at 1 µM: mouse proteome, in vitro, read-out: % Inhibition at 1 μM ABHD6; for IC50: mouse brain membrane fraction or cell lysates, 30 min preincubation at 37° C, FP-Rh probe. It is filed as biochemical. On the procedure:
as §3, §4

In experiment [6] the target is T3, ABHD6. Description: Mouse brain proteomes from inhibitor treated mice, ABHD6. It is filed as in vivo. To be noted: 5 mg/kg oral gavage, C57Bl/6J mice, brain proteome 4 h after administration. How it is done:
as §1, §2

As usually defined, the inhibition is the relative decrease from the control value, in per cent. Broadly, the IC50 is the concentration needed to halve the response being measured. Read a low IC50 as higher potency. Consider `Cc1ccc(CN2CCN(C(=O)OC(C(F)(F)F)C(F)(F)F)CC2)c(N2CC[C@H](CF)C2)c1` [Example 53, 1,1,1,3,3,3-hexafluoropropan-2-yl (S)-4-(2-(3-(fluoromethyl)pyrrolidin-1-yl)-4-methylbenzyl)piperazine-1-carboxylate], for which the inhibition at 5 mg/kg against FAAH [1] was < 25%; against MAGL [3], > 75%; on ABHD6 [6], < 25%. The inhibition at 1 µM was < 25% at FAAH [2], > 75% at MAGL [4] and < 25% on ABHD6 [5]. The half-inhibitory concentration (IC50) at FAAH [2] is > 1000 nM; on MAGL [4], < 100 nM; on ABHD6 [5], > 1000 nM.
As to `O=C(OC(C(F)(F)F)C(F)(F)F)N1CCN(Cc2ccc(C(F)(F)F)cc2N2CC[C@H](CF)C2)CC1` [Example 54, 1,1,1,3,3,3-hexafluoropropan-2-yl (S)-4-(2-(3-(fluoromethyl)pyrrolidin-1-yl)-4-(trifluoromethyl)benzyl)piperazine-1-carboxylate], the inhibition at 5 mg/kg is < 25% against FAAH [1], > 75% against MAGL [3] and < 25% against ABHD6 [6]. The results for the inhibition at 1 µM at FAAH [2], at MAGL [4] and at ABHD6 [5] were < 25%, > 75% and < 25%, respectively. The values for the IC50 at FAAH [2], on MAGL [4] and at ABHD6 [5] were > 1000 nM, < 100 nM and > 1000 nM, respectively.
As for `O=C(OC(C(F)(F)F)C(F)(F)F)N1CCN(Cc2cccc(Cl)c2N2CC[C@H](CF)C2)CC1` [Example 55, 1,1,1,3,3,3-hexafluoropropan-2-yl (S)-4-(3-chloro-2-(3-(fluoromethyl)pyrrolidin-1-yl)benzyl)piperazine-1-carboxylate], the inhibition at 5 mg/kg against FAAH [1] was < 25%; against MAGL [3] it was > 75%; at ABHD6 [6], < 25%. For the same compound, the inhibition at 1 µM is < 25% at FAAH [2], > 75% on MAGL [4] and < 25% at ABHD6 [5]. Also, the concentration for half-maximal inhibition (IC50) is > 1000 nM at FAAH [2], < 100 nM on MAGL [4] and > 1000 nM on ABHD6 [5].
For the compound `Cc1cccc(CN2CCN(C(=O)OC(C(F)(F)F)C(F)(F)F)CC2)c1N1CC[C@H](CF)C1` [Example 56, 1,1,1,3,3,3-hexafluoropropan-2-yl (S)-4-(2-(3-(fluoromethyl)pyrrolidin-1-yl)-3-methylbenzyl)piperazine-1-carboxylate], the inhibition at 5 mg/kg was < 25% against FAAH [1], > 75% against MAGL [3] and < 25% against ABHD6 [6]. Also, the inhibition at 1 µM is < 25% on FAAH [2], > 75% on MAGL [4] and < 25% on ABHD6 [5]. Further, the values for the IC50 at FAAH [2], on MAGL [4] and at ABHD6 [5] were > 1000 nM, < 100 nM and > 1000 nM, respectively.
In the case of `O=C(OC(C(F)(F)F)C(F)(F)F)N1CCN(Cc2cccc(Cl)c2N2CC3CCC(C2)O3)CC1` [Example 57, 1,1,1,3,3,3-hexafluoropropan-2-yl 4-(2-(8-oxa-3-azabicyclo[3.2.1]octan-3-yl)-3-chlorobenzyl)piperazine-1-carboxylate], the inhibition at 5 mg/kg against FAAH [1] is < 25%; on MAGL [3], > 75%; against ABHD6 [6] it was < 25%. Further, the inhibition at 1 µM at FAAH [2] was < 25%; on MAGL [4] it was > 75%; at ABHD6 [5], < 25%. Also, the concentration for half-maximal inhibition (IC50) was > 1000 nM at FAAH [2], < 100 nM on MAGL [4] and > 1000 nM on ABHD6 [5].
As for `CS(=O)(=O)N[C@@H]1CCN(c2cc(C(F)(F)F)ccc2CN2CCN(C(=O)OC(C(F)(F)F)C(F)(F)F)CC2)C1` [Example 60, 1,1,1,3,3,3-hexafluoropropan-2-yl (R)-4-(2-(3-(methylsulfonamido)pyrrolidin-1-yl)-4-(trifluoromethyl)benzyl)piperazine-1-carboxylate], the inhibition at 5 mg/kg on FAAH [1] is < 25%; on MAGL [3], > 75%; against ABHD6 [6] it was < 25%. Besides, the inhibition at 1 µM on FAAH [2] is < 25%; at MAGL [4], > 75%; on ABHD6 [5], < 25%. Also, the IC50 on FAAH [2] is > 1000 nM; on MAGL [4], < 100 nM; on ABHD6 [5], > 1000 nM.
With `CS(=O)(=O)N[C@H]1CCN(c2cc(C(F)(F)F)ccc2CN2CCN(C(=O)OC(C(F)(F)F)C(F)(F)F)CC2)C1` [Example 61, 1,1,1,3,3,3-hexafluoropropan-2-yl (S)-4-(2-(3-(methylsulfonamido)pyrrolidin-1-yl)-4-(trifluoromethyl)benzyl)piperazine-1-carboxylate], the figures for the inhibition at 5 mg/kg against FAAH [1], at MAGL [3] and on ABHD6 [6] were < 25%, > 75% and < 25%, respectively. Also, the inhibition at 1 µM on FAAH [2] is < 25%; on MAGL [4], > 75%; on ABHD6 [5], < 25%. The half-inhibitory concentration (IC50) on FAAH [2] is > 1000 nM; at MAGL [4], < 100 nM; on ABHD6 [5], > 1000 nM.
As for `O=C(OC(C(F)(F)F)C(F)(F)F)N1CCN(Cc2ccc(C(F)(F)F)cc2N2CC3CN(C4CC4)CC3C2)CC1` (stereo not drawn) [Example 65, 1,1,1,3,3,3-hexafluoropropan-2-yl 4-(2-(5-cyclopropylhexahydropyrrolo[3,4-c]pyrrol-2(1H)-yl)-4-(trifluoromethyl)benzyl)piperazine-1-carboxylate], the inhibition at 5 mg/kg on FAAH [1], on MAGL [3] and against ABHD6 [6] was < 25% each time. Moreover, the inhibition at 1 µM on FAAH [2] was < 25%; at MAGL [4] it was > 75%; on ABHD6 [5] it was 25 to 75%. For the same compound, the IC50 on FAAH [2] is > 1000 nM; on MAGL [4] it was < 100 nM; at ABHD6 [5] it was > 1000 nM.
As to `O=C(OC(C(F)(F)F)C(F)(F)F)N1CCN(Cc2ccc(C(F)(F)F)cc2N2CCCC2CO)CC1` (stereo not drawn) [Example 71, 1,1,1,3,3,3-hexafluoropropan-2-yl 4-(2-(2-(hydroxymethyl)pyrrolidin-1-yl)-4-(trifluoromethyl)benzyl)piperazine-1-carboxylate], the inhibition at 5 mg/kg against FAAH [1] is < 25%; on MAGL [3], > 75%; against ABHD6 [6] it was < 25%. Further, the results for the inhibition at 1 µM on FAAH [2], on MAGL [4] and on ABHD6 [5] were < 25%, > 75% and < 25%, respectively. The IC50 was > 1000 nM at FAAH [2], < 100 nM at MAGL [4] and > 1000 nM on ABHD6 [5].

The record behind these values is patent US9771341B2, “Piperazine carbamates and methods of making and using same” (Abide Therapeutics, Inc., priority 2015, dated 2017).
